The values below come from ChEMBL document CHEMBL4342418, “1,2,3-Triazole-containing hybrids as potential anticancer agents: Current developments, action mechanisms and structure-activity relationships” (Eur J Med Chem, 2019).

The IC50 is the concentration at which inhibition is half-maximal.

Structures are written as SMILES.

Test [1] relates to DU-145. Briefly: Potency index, ratio of podophyllotoxin IC50 to test compound IC50 for antiproliferative activity against human DU145 cells. In kind it is functional.
Test [2] has as its system MCF7. Briefly: cells. In kind it is functional, cell-based. To be noted: Homo sapiens.
Description: Antiproliferative activity against human MCF7 cells by MTT assay
The next test has as its system NIH3T3. Put plainly: Antiproliferative activity against mouse NIH/3T3 cells by MTT assay. In kind it is functional, cell-based.
The subject of test [3] is HepG2. Briefly: Antiproliferative activity against human HepG2 cells by MTT assay. It is filed as functional, cell-based. On the technique in general: Formazan colour is commonly taken as a measure of viable cells.
For test [4], the system named is HeLa. Put plainly: Antiproliferative activity against human HeLa cells by MTT assay. It is filed as functional, cell-based.
The test system of test [5] is MCF7. Put plainly: Potency index, ratio of podophyllotoxin IC50 to test compound IC50 for antiproliferative activity against human MCF7 cells. In kind it is functional.
Test [6] relates to HepG2. Briefly: Potency index, ratio of podophyllotoxin IC50 to test compound IC50 for antiproliferative activity against human HepG2 cells. It is filed as functional.
Test [7] relates to DU-145. Put plainly: Antiproliferative activity against human DU145 cells by MTT assay. It is filed as functional, cell-based.
For test [8], the system named is A549. Briefly: cells. To be noted: Homo sapiens. It is filed as functional, cell-based.
Description: Antiproliferative activity against human A549 cells by MTT assay
The test system of test [9] is HeLa. Put plainly: Potency index, ratio of podophyllotoxin IC50 to test compound IC50 for antiproliferative activity against human HeLa cells. In kind it is functional.
Test [10] concerns A549. Put plainly: Potency index, ratio of podophyllotoxin IC50 to test compound IC50 for antiproliferative activity against human A549 cells. In kind it is functional.
Test [11] relates to A549. Put plainly: Antiproliferative activity against human A549 cells assessed as reduction in cell viability after 72 hrs by MTT assay. It is filed as functional, cell-based. To be noted: A549, 72 h.
Test [12] relates to HepG2. Briefly: Antiproliferative activity against human HepG2 cells assessed as reduction in cell viability after 72 hrs by MTT assay. In kind it is functional, cell-based. Particulars: HepG2, 72 h.
The subject of test [13] is A549. Put plainly: Antitumour activity against human A549 cells xenografted in Kunming mice assessed as tumour growth inhibition at 5 mg/kg, iv bid administered and measured after week relative to control. It is filed as functional. Particulars: Mus musculus, read-out: TGI. In general terms: In xenograft studies the graft and the host belong to different species.
Test [14] has as its system A549. Briefly: Antitumour activity against human A549 cells xenografted in Kunming mice assessed as tumour growth inhibition at 20 mg/kg, iv bid administered and measured after week relative to control. It is filed as functional. To be noted: Mus musculus, read-out: TGI.
A further test deals with A549/TR. Briefly: Antiproliferative activity against human A549/TR cells assessed as reduction in cell viability after 72 hrs by MTT assay. In kind it is functional, cell-based.
Test [15] relates to A549. Put plainly: Antitumour activity against human A549 cells xenografted in Kunming mice assessed as tumour growth inhibition at 10 mg/kg, iv bid administered and measured after week hrs relative to control. It is filed as functional. To be noted: Mus musculus, read-out: TGI.
A further test has as its system A549/CDDP. Put plainly: Antiproliferative activity against human A549/CDDP cells assessed as reduction in cell viability after 72 hrs by MTT assay. In kind it is functional, cell-based.
The test system of test [16] is A549. Briefly: Antitumour activity against human A549 cells xenografted in Kunming mice assessed as tumour growth inhibition at 50 mg/kg, po administered and measured after week relative to control. It is filed as functional. Particulars: Mus musculus, read-out: TGI.
Test [17] has as its system U-251. Briefly: Antiproliferative activity against human U251 cells assessed as reduction in cell viability after 72 hrs by MTT assay. It is filed as functional, cell-based. To be noted: U-251, 72 h.
Test [18] has as its system HCT-116. Briefly: Antiproliferative activity against human HCT116 cells assessed as reduction in cell viability after 72 hrs by MTT assay. In kind it is functional, cell-based. To be noted: HCT-116, 72 h.
For another test, the system named is L02. Briefly: Antiproliferative activity against human HL7702 cells by MTT assay. It is filed as cell-based.
Another test concerns LNCaP. Put plainly: Antiproliferative activity against human LNCAP cells by MTT assay. In kind it is functional, cell-based.
A further test concerns SK-BR-3. Put plainly: Antiproliferative activity against human SKBR3 cells by MTT assay. It is filed as functional, cell-based.
The test system of the next test is PC-3. Put plainly: Antiproliferative activity against human PC3 cells by MTT assay. In kind it is functional, cell-based.
A further test relates to K562. Put plainly: Antiproliferative activity against human K562 cells by MTT assay. It is filed as functional, cell-based.
The test system of test [19] is HCT-116. Put plainly: Antiproliferative activity against human HCT116 cells by MTT assay. In kind it is functional, cell-based.
The test system of the next test is HFF. Briefly: Antiproliferative activity against human HFF cells by MTT assay. In kind it is cell-based.
Test [20] relates to U-251. Put plainly: Antiproliferative activity against human U251 cells by MTT assay. In kind it is functional, cell-based.
Test [21] can be described thus: Antiproliferative activity against human SMCC7721 cells by MTT assay. In kind it is functional, cell-based.
The next test has as its system K562/Adr. Briefly: Antiproliferative activity against human K562/ADR cells by MTT assay. In kind it is functional, cell-based.
The test system of a further test is NCI-H460. Put plainly: Antiproliferative activity against human H460 cells by MTT assay. It is filed as functional, cell-based.
The next test relates to NCI-H1299. Briefly: Antiproliferative activity against human H1299 cells by MTT assay. It is filed as functional, cell-based.
The test system of a further test is Ca-Ski. Briefly: Antiproliferative activity against human CaSki cells by MTT assay. In kind it is functional, cell-based.
The test system of the next test is MGC-803. Briefly: Antiproliferative activity against human MGC803 cells by MTT assay. In kind it is functional, cell-based.
Test [22] has as its system MDA-MB-231. Put plainly: Antiproliferative activity against human MDA-MB-231 cells assessed as reduction in cell viability after 72 hrs by MTT assay. It is filed as functional, cell-based. Particulars: MDA-MB-231, 72 h, read-out: IC50.
Test [23] concerns MCF7. Briefly: Antiproliferative activity against human MCF7 cells assessed as reduction in cell viability after 72 hrs by MTT assay. In kind it is functional, cell-based. Particulars: MCF7, 72 h.
The test system of test [24] is MDA-MB-231. Put plainly: Potency index, ratio of 5-fluorouracil IC50 to test compound IC50 for antiproliferative activity against human MDA-MB-231 cells. In kind it is functional.
In test [25] the test system is MDA-MB-468. Briefly: Antiproliferative activity against human MDA-MB-468 cells assessed as reduction in cell viability after 72 hrs by MTT assay. To be noted: MDA-MB-468, 72 h. In kind it is functional, cell-based.
In test [26] the test system is MDA-MB-468. Put plainly: Potency index, ratio of 5-fluorouracil IC50 to test compound IC50 for antiproliferative activity against human MDA-MB-468 cells. It is filed as functional.
Test [27] concerns MCF7. Briefly: Potency index, ratio of 5-fluorouracil IC50 to test compound IC50 for antiproliferative activity against human MCF7 cells. In kind it is functional.

Consider `COc1cc([C@@H]2c3cc4c(cc3[C@H](NC(=O)c3cn(-c5ccc(Cl)cc5)nn3)[C@H]3COC(=O)[C@H]23)OCO4)cc(OC)c1OC`, for which the “Ratio IC50” value in the test on DU-145 [1], in the test with MCF7 [5], in the test with HepG2 [6], with HeLa [9] and in the test with A549 [10] was 3.8 - 8.5 throughout. In addition, the concentration for half-maximal inhibition (IC50) in the test on MCF7 [2], in the test on NIH3T3, with HepG2 [3], in the test on HeLa [4], in the test with DU-145 [7] and in the test on A549 [8] was 0.7 to 1.21 µM in each case.
With `CC(C)=CCC12OC(C)(C)C3CC(C=C4C(=O)c5c(OCc6cn(CCN7CCOCC7)nn6)cccc5OC431)C2=O` (stereo not drawn), the IC50 in the test on A549 [11], in the test with HepG2 [12], in the test on A549/TR, with A549/CDDP, in the test with U-251 [17] and in the test on HCT-116 [18] was 0.31 to 3.75 µM each time. Moreover, the inhibition in vivo at 5 mg/kg in the test on A549 [13] amounted to 30.9%. For the same compound, the inhibition in vivo at 20 mg/kg in the test on A549 [14] amounted to 71.3%. Moreover, the inhibition in vivo at 10 mg/kg in the test on A549 [15] amounted to 52.2%. The inhibition in vivo at 50 mg/kg in the test on A549 [16] came to 66.4%.
Take `COC(=O)c1ccc(-c2cn(CC(=O)O[C@H]3c4cc5c(cc4[C@@H](c4cc(OC)c(OC)c(OC)c4)[C@H]4C(=O)OC[C@@H]43)OCO5)nn2)cc1`: the IC50 with L02 was 565 µM; with MCF7 [2], 21.1 to 124 µM; with LNCaP, 19.6 to 55.3 µM; in the test on SK-BR-3, 19.6 to 55.3 µM; in the test with PC-3 it was 21.1 to 124 µM; in the test on K562 it was 19.6 to 55.3 µM. Moreover, the concentration for half-maximal inhibition (IC50) in the test on HCT-116 [19] is 19.6 to 55.3 µM; with HFF it was 195 µM; in the test on A549 [8], 21.1 to 124 µM; in the test on U-251 [20], 19.6 to 55.3 µM; in test [21] it was 19.6 to 55.3 µM; in the test on K562/Adr, 19.6 to 55.3 µM.
Regarding `CO[C@H]1C[C@@H]2CC[C@@H](C)[C@@](O)(O2)C(=O)C(=O)N2CCCC[C@H]2C(=O)O[C@H]([C@H](C)C[C@@H]2CC[C@@H](OCCCn3cc(CNc4ccc(Cl)cc4Cl)nn3)[C@H](OC)C2)CC(=O)[C@H](C)/C=C(\C)[C@@H](O)[C@@H](OC)C(=O)[C@H](C)C[C@H](C)/C=C/C=C/C=C/1C`, the 50% inhibitory concentration (IC50) with NCI-H460, in the test on NCI-H1299, in the test on Ca-Ski and in the test with MGC-803 was 6.05 to 25.9 µM each time.
Take `COc1cc(Cn2cc(CN3c4ccccc4Sc4ccccc43)nn2)cc(OC)c1OC`: the IC50 with MDA-MB-231 [22], with MCF7 [23] and in the test on MDA-MB-468 [25] was 0.8 to 1.7 µM each time. The “Ratio IC50” value in the test on MDA-MB-231 [24], in the test on MDA-MB-468 [26] and in the test with MCF7 [27] was 6.2 - 15.8 throughout.
